Source: patent US7803930B2, “Antisense modulation of apolipoprotein B-expression” (Isis Pharmaceuticals, Inc., priority 2002, dated 2010)
In the oligonucleotide strings, read from the 5' end, every base follows the letter of its sugar. An asterisk marks phosphorothioate; unmarked linkages are phosphodiester. Other units and linkages are bracketed, terminal groups are in braces. A string of capitals states the bases alone. e = 2'-O-(2-methoxyethyl) (MOE); [5mC] = 5-methylcytosine; d = 2'-deoxy (DNA)

Tested on: mouse apolipoprotein B mRNA
Test: Inhibition of mouse apolipoprotein B mRNA levels in primary mouse hepatocytes, real-time PCR
Type: cell-based
Summary of the method: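 Primary CD-1 mouse hepatocytes transfected at 80% confluency with oligonucleotide plus 3.75 μg/mL LIPOFECTIN for 4-7 h, harvested 16-24 h after treatment. ApoB mRNA measured by real-time quantitative PCR against a standard curve of untreated-control mRNA, giving percent inhibition; GAPDH primers/probe also used.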

147764 (eG*eT*e[5mC]*e[5mC]*e[5mC]*dT*dG*dA*dA*dG*dA*dT*dG*dT*d[5mC]*eA*eA*eT*eG*e[5mC]) [compound 147764]
% INHIB (Table 3, 150 nM, averages from two experiments): 97%
Percent Inhibition 50 nM (Table 4, 50 nM): 48%
Percent Inhibition 150 nM (Table 4, 150 nM): 84%
Percent Inhibition 300 nM (Table 4, 300 nM): 90%
